Results reported in patent US12486278B2, “MASP-2 inhibitors and methods of use” (Omeros Corporation, priority 2019, dated 2025).
Counter-ions that a name gives are not always drawn.

These molecules were tested against T1, MASP-2 (CCP1-CCP2-SP) (Homo sapiens, UniProt O00187) (assay: Enzymatic Assay for MASP-2 (fluorogenic substrate)). Settings: fluorogenic substrate based on C2 cleavage site; room temperature, 20 min; 20 mM HEPES pH 7.4, 140 mM NaCl, 0.1% Tween 20.
T1 construct: 15 μL of Enzyme MASP-2 (CCP1-CCP2-SP) in Assay Buffer
T1 sequence (O00187 445-686 limits assumed): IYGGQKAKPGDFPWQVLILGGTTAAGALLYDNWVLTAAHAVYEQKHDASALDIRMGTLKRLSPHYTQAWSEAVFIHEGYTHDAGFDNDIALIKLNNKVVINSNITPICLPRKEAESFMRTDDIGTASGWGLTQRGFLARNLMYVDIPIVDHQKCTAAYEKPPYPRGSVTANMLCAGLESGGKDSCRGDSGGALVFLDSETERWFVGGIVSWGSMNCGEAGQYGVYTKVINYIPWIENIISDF
T1 sequence (O00187 298-444 partner limits assumed): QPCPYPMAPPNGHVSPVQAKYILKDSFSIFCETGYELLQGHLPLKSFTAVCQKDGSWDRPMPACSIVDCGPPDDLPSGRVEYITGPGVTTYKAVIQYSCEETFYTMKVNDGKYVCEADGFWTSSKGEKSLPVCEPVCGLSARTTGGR
Type: biochemical
Procedure: The MASP-2 assay utilizes a fluorogenic substrate, based on the cleavage site for its natural substrate C2. The assay is run at room temperature in an assay buffer containing 20 mM HEPES, pH 7.4, 140 mM NaCl and 0.1% Tween 20. Assay parameters are adjusted such that the assay is linear with respect to time, enzyme, and substrate concentrations. Under these optimized assays conditions, IC50 values are equivalent to Ki values, except in a few cases of “tight binding” inhibitors. Cases of “tight binding” or possible “slow binding” inhibitors are handled by the methods described in Copeland R. A. (2013) Evaluation of Enzyme Inhibitors in Drug Discovery. 2nd Ed., John Wiley and Sons, Inc., Chapters 5-7.
The MASP-2 assay protocol is carried out as follows. Test compounds are serially diluted in DMSO and then 100 nL of each dilution is transferred to the assay plate(s). 10 μL of Assay Buffer is added, followed by 15 μL of Enzyme MASP-2 (CCP1-CCP2-SP) in Assay Buffer. 15 μL of Substrate in Assay Buffer is then added and mixed to start the reactions. After 20 min at room temperature, 15 μL of a stop solution (0.1 M acetic acid) is added, mixed and the plates are read on a SpectraMax i3x Microplate Reader and exported as Excel files. Each assay plate included a “no inhibitor” (DMSO Only) control, a “no enzyme” control and a reference inhibitor control. % Activity values=100*(average test comp. fluorescence−average “no enzyme” fluorescence)/(average “DMSO only” fluorescence−average “no enzyme” fluorescence). IC50 and Ki values are very reproducible, falling well within ±2-fold.

Structure (SMILES)	Ki [µM]
C[C@H](NC(=O)[C@H]1C[C@H](Cc2ccccc2)CN1)C(=O)NCc1ccc2c(c1)ncn2C [Compound I-30, (2R,4S)-4-Benzyl-N—((S)-1-(((1-Methyl-1H-Benzo[D]Imidazol-5-Yl)Methyl)Amino)-1-Oxopropan-2-Yl)Pyrrolidine-2-Carboxamide Trifluoroacetate]	2.5 to 10
C[C@H](NC(=O)[C@H]1C[C@@H](c2ccccc2)CCN1CCCP(=O)(O)O)C(=O)NCc1cc(Cl)ccc1-n1cnnn1 [Compound I-40, (3-((2R,4S)-2-(((S)-1-((5-Chloro-2-(1H-Tetrazol-1-Yl)Benzyl)Amino)-1-Oxopropan-2-Yl)Carbamoyl)-4-Phenylpiperidin-1-Yl)Propyl)Phosphonic Acid Di-Trifluoroacetate]	0.5 to 2.5
C[C@H](NC(=O)[C@H]1C[C@H](c2ccccc2)CN1)C(=O)NCc1ccc(C(=N)N)cc1Cl [Compound I-24, (2R,4R)—N—((S)-1-((4-Carbamimidoyl-2-Chlorobenzyl)Amino)-1-Oxopropan-2-Yl)-4-Phenylpyrrolidine-2-Carboxamide Di-Trifluoroacetate]	< 0.5
C[C@H](NC(=O)[C@H]1C[C@@H](c2ccncc2)CN1)C(=O)NCc1ccc(C(=N)N)cc1 [Compound I-95, (2R,4S)—N—((S)-1-((4-carbamimidoylbenzyl)amino)-1-oxopropan-2-yl)-4-(pyridin-4-yl)pyrrolidine-2-carboxamide di-trifluoroacetate]	0.5 to 2.5
C[C@H](NC(=O)[C@H]1C[C@@H](c2ccccc2)CCN1CCC(=O)O)C(=O)NCc1cc2cnccc2[nH]1 [Compound I-107, 3-((2R,4S)-2-(((S)-1-(((1H-pyrrolo[3,2-c]pyridin-2-yl)methyl)amino)-1-oxopropan-2-yl)carbamoyl)-4-phenylpiperidin-1-yl)propanoic acid di-trifluoroacetate salt]	< 0.5
N=C(N)c1ccc(CNC(=O)[C@@H]2CCN2C(=O)[C@H]2C[C@@H](c3ccccc3)CCN2)cc1 [Compound I-66, (S)—N-(4-Carbamimidoylbenzyl)-1-((2R,4S)-4-Phenylpiperidine-2-Carbonyl)Azetidine-2-Carboxamide Trifluoroacetate]	< 0.5
C[C@H](NC(=O)[C@H]1C[C@@H](c2ccc(-c3ccccc3)cc2)CCN1)C(=O)NCc1cc(Cl)ccc1-n1cnnn1 [Compound I-102, (2R,4S)-4-([1,1′-Biphenyl]-4-yl)-N—((S)-1-((5-chloro-2-(1H-tetrazol-1-yl)benzyl)amino)-1-oxopropan-2-yl)piperidine-2-carboxamide trifluoroacetate]	< 0.5
C[C@H](NC(=O)[C@H]1C[C@@H](c2ccc(F)cc2)CCN1)C(=O)NCc1ccc(C(=N)N)cc1 [Compound I-67]	< 0.5
C[C@H](NC(=O)[C@H]1C[C@@H](c2cccc(C(N)=O)c2)CN1)C(=O)NCc1ccc(C(=N)N)cc1 [Compound I-15]	< 0.5
C[C@H](NC(=O)[C@H]1C[C@H](Cc2ccc(Cl)s2)CN1)C(=O)NCc1cnc2[nH]cc(Cl)c2c1 [Compound I-83, (2R,4R)—N—((S)-1-(((3-Chloro-1H-Pyrrolo[2,3-B]Pyridin-5-Yl)Methyl)Amino)-1-Oxopropan-2-Yl)-4-((5-Chlorothiophen-2-Yl)Methyl)Pyrrolidine-2-Carboxamide Dihydrochloride]	< 0.5

More lines, now with the values ahead:

Ki [µM]	Structure (SMILES)
< 0.5	COC(=O)c1ccc(C[C@@H]2CN[C@@H](C(=O)N[C@@H](C)C(=O)NCc3ccc(N)nc3C)C2)cc1 [Compound I-50, Methyl 4-(((3S,5R)-5-(((S)-1-(((6-Amino-2-Methylpyridin-3-Yl)Methyl)Amino)-1-Oxopropan-2-Yl)Carbamoyl)Pyrrolidin-3-Yl)Methyl)Benzoate Dihydrochloride]
< 0.5	Cc1nc(N)ccc1CNC(=O)[C@@H]1CCN1C(=O)[C@H]1C[C@@H](c2ccccc2)CCN1 [Compound I-63, (S)—N-((6-Amino-2-Methylpyridin-3-Yl)Methyl)-1-((2R,4S)-4-Phenylpiperidine-2-Carbonyl)Azetidine-2-Carboxamide Di-Trifluoroacetate]
0.5 to 2.5	C[C@H](NC(=O)[C@H]1C[C@H](c2ccccc2)CN1)C(=O)NCc1nc2c(Cl)cccc2s1 [Compound I-4, (2R,4R)—N—((S)-1-(((4-Chlorobenzo[D]Thiazol-2-Yl)Methyl)Amino)-1-Oxopropan-2-Yl)-4-Phenylpyrrolidine-2-Carboxamide Trifluoroacetate]
< 0.5	CCN1C[C@@H](Cc2ccc(F)c(Cl)c2)C[C@@H]1C(=O)N[C@@H](C)C(=O)NCc1cnc2c(c1)c(Cl)cn2C [Compound I-26, (2R,4S)—N—((S)-1-(((3-Chloro-1-Methyl-1H-Pyrrolo[2,3-B]Pyridin-5-Yl)Methyl)Amino)-1-Oxopropan-2-Yl)-4-(3-Chloro-4-Fluorobenzyl)-1-Ethylpyrrolidine-2-Carboxamide]
< 0.5	CCOC(=O)CCN1CC[C@H](c2ccccc2)C[C@@H]1C(=O)N[C@@H](C)C(=O)NCc1cc2cnccc2[nH]1 [Compound I-106, Ethyl 3-((2R,4S)-2-(((S)-1-(((1H-pyrrolo[3,2-c]pyridin-2-yl)methyl)amino)-1-oxopropan-2-yl)carbamoyl)-4-phenylpiperidin-1-yl)propanoate]
< 0.5	Cc1cccc([C@@H]2CN[C@@H](C(=O)N[C@@H](C)C(=O)NCc3ccc(C(=N)N)cc3)C2)c1 [Compound I-13, (2R,4R)—N—((S)-1-((4-Carbamimidoylbenzyl)Amino)-1-Oxopropan-2-Yl)-4-(M-Tolyl)Pyrrolidine-2-Carboxamide]
< 0.5	Cc1nc(N)ccc1CNC(=O)[C@@H]1CCN1C(=O)[C@H]1C[C@@H](c2cccc(-c3ccccc3)c2)CCN1 [Compound I-65, (S)-1-((2R,4S)-4-([1,1′-Biphenyl]-3-Yl)Piperidine-2-Carbonyl)-N-((6-Amino-2-Methylpyridin-3-Yl)Methyl)Azetidine-2-Carboxamide Di-Trifluoroacetate]
< 0.5	Cc1nc(N)ccc1CNC(=O)[C@H](C)NC(=O)[C@H]1C[C@H](Cc2ccc(C(F)(F)F)s2)CN1 [Compound I-89, (2R,4R)—N—((S)-1-(((6-Amino-2-Methylpyridin-3-Yl)Methyl)Amino)-1-Oxopropan-2-Yl)-4-((5-(Trifluoromethyl)Thiophen-2-Yl)Methyl)Pyrrolidine-2-Carboxamide Dihydrochloride]
< 0.5	C[C@H](NC(=O)[C@H]1C[C@H](Cc2cccc(Cl)c2)CN1)C(=O)NCc1cnc2[nH]cc(Cl)c2c1 [Compound I-82, (2R,4S)—N—((S)-1-(((3-Chloro-1H-Pyrrolo[2,3-B]Pyridin-5-Yl)Methyl)Amino)-1-Oxopropan-2-Yl)-4-(3-Chlorobenzyl)Pyrrolidine-2-Carboxamide Dihydrochloride]
< 0.5	C[C@H](NC(=O)[C@H]1C[C@@H](c2ccc(N3CCOCC3)cc2)CCN1)C(=O)NCc1ccc(C(=N)N)cc1 [Compound I-76, (2R,4S)—N—((S)-1-((4-Carbamimidoylbenzyl)Amino)-1-Oxopropan-2-Yl)-4-(4-Morpholinophenyl)Piperidine-2-Carboxamide Dihydrochloride]
< 0.5	Cc1nc(N)ccc1CNC(=O)[C@@H]1COC(=O)N1C(=O)[C@H]1C[C@H](Cc2ccccc2)CN1 [Compound I-58, (S)—N-((6-Amino-2-Methylpyridin-3-Yl)Methyl)-3-((2R,4S)-4-Benzylpyrrolidine-2-Carbonyl)-2-Oxooxazolidine-4-Carboxamide Di-Trifluoroacetate]
2.5 to 10	C[C@H](NC(=O)[C@H]1C[C@H](c2ccccc2)CN1)C(=O)NCc1cc2ccncc2[nH]1 [Compound I-3, (2R,4R)—N—((S)-1-(((1H-pyrrolo[2,3-c]pyridin-2-yl)methyl)amino)-1-oxopropan-2-yl)-4-phenylpyrrolidine-2-carboxamide di-trifluoroacetate]
< 0.5	[2H]C([2H])([2H])n1cc(Cl)c2cc(CNC(=O)[C@H](C)NC(=O)[C@H]3C[C@H](Cc4ccccc4)CN3)cnc21 [Compound I-45, (2R,4S)-4-Benzyl-N—((S)-1-(((3-Chloro-1-(Methyl-D3)-1H-Pyrrolo[2,3-B]Pyridin-5-Yl)Methyl)Amino)-1-Oxopropan-2-Yl)Pyrrolidine-2-Carboxamide Hydrochloride]
< 0.5	C[C@H](NC(=O)[C@H]1C[C@H](C2(c3ccccc3)CC2)CN1)C(=O)NCc1cc2cnccc2[nH]1 [Compound I-8, (2R,4R)—N—((S)-1-(((1H-Pyrrolo[3,2-C]Pyridin-2-Yl)Methyl)Amino)-1-Oxopropan-2-Yl)-4-(1-Phenylcyclopropyl)Pyrrolidine-2-Carboxamide Di-Trifluoroacetate]
< 0.5	Cc1nc(N)ccc1CNC(=O)[C@H](C)NC(=O)[C@H]1C[C@H](Cc2ccc(C(=O)O)cc2)CN1 [Compound I-51, 4-(((3S,5R)-5-(((S)-1-(((6-Amino-2-Methylpyridin-3-Yl)Methyl)Amino)-1-Oxopropan-2-Yl)Carbamoyl)Pyrrolidin-3-Yl)Methyl)Benzoic Acid Di-Trifluoroacetate]
